Experimental data reported in US20080003634A1, “Extended Primary Retinal Cell Culture and Stress Models, and Methods of Use” (ACUCELA, INC., priority 2003, published 2008).

What was measured:
[1] = tested on: bovine retinal pigment epithelial cells; conditions: bovine RPE cells; cited from earlier work
[2] = tested on: NFM-expressing ganglion cells; experiment: A2E-induced stress, NFM-labeled ganglion cell count in mature retinal cell culture; assay type: cell-based, Porcine
Excerpt: (§1) Porcine eyes were obtained from Kapowsin Meats, Inc. (Graham, Wash.). Eyes were enucleated, and muscle and tissue were cleaned away from the orbit. Eyes were cut in half along their equator and the neural retina was dissected from the anterior part of the eye in buffered saline solution, according to standard methods known in the art. Briefly, the retina, ciliary body, and vitreous were dissected away from the anterior half of the eye in one piece, and the retina was gently detached from the clear vitreous. Each retina was dissociated with papain (Worthington Biochemical Corporation, Lakewood, N.J.), followed by inactivation with fetal bovine serum (FBS) and addition of 134 Kunitz units/ml of DNaseI. […]
(§2) Cultures were analyzed by counting rhodopsin-labeled photoreceptors and NFM-labeled ganglion cells using an Olympus IX81 or CZX41 microscope (Olympus, Tokyo, Japan). Twenty fields of view were counted per coverslip with a 20× objective lens. Six coverslips were analyzed by this method for each condition in each experiment. Cells that were not exposed to any stressor were counted, and cells exposed to a stressor were normalized to the number of cells in the control. […]
(§3) Immunocytochemical analysis was performed and the data analyzed as described in Examples 1 and 2.

[3] = tested on: rhodopsin-expressing photoreceptors; experiment: A2E-induced stress, rhodopsin-labeled photoreceptor count in mature retinal cell culture; assay type: cell-based, Porcine
Excerpt: as §1, §2, §3

[4] = tested on: rhodopsin-expressing photoreceptors; experiment: EPO effect on photoreceptor survival under A2E stress in retinal cell culture; assay type: cell-based, Porcine; conditions: A2E 25 μM for 24 hours, no EPO; FIG. 13
Excerpt: as §1
as §2, with “exposed to either EPO or to any stressor” for “exposed to any stressor”, “a stressor with or without treatment with EPO were normalized” for “a stressor were normalized”

| SMILES | growth and replication of the cells [1] | survival of ganglion cells ([2]; 20 μM A2E for 48 hours) | number of NFM-expressing ganglion cells versus no stress ([2]; 20 μM A2E, 24 hours, FIG. 8) | death of photoreceptor cells compared to photoreceptor cells not exposed to A2E ([3]; 20 μM A2E for 48 hours) | number of rhodopsin-expressing photoreceptors ([3]; varying concentrations of A2E (0, 10, 20, 40 μM), 24 hours, FIG. 7) | total live cell count of rhodopsin-expressing photoreceptors after stress versus before stress [4] |
| --- | --- | --- | --- | --- | --- | --- |
| c1ccc2c(c1)cc1ccc3cccc4ccc2c1c34 [benzo(a)pyrene] | appeared to inhibit growth and replication |  |  |  |  |  |
| CC(C=CC1=C(C)CCCC1(C)C)=CC=CC(C)=Cc1cc(C=CC=C(C)C=CC2=C(C)CCCC2(C)C)cc[n+]1CCO [A2E, N-retinylidene-N-retinyl-ethanolamine] |  | not adversely affected | not statistically different | more than 90% | showed a dose response | much smaller |
